How the values were obtained:
Assay in all cases: Viable cell count after culture in supplemented BL broth
Type in all cases: cell-based
Settings in all cases: Exp. Ex. 1 carbon source; 2 parts by weight in 100 parts BL broth; 20 hours; pH about 5.0 to 6.5
[1] = tested on: Lactobacillus plantarum CBT-LP3 (KCTC 10782BP)
Experimental: (§1) To promote the growth of non-specific various types of lactic acid bacteria, an optimal mixture composition was determined by culturing each of the following strains using each component, ratio and composition and measuring the viable cell count of each of the strains: Lactobacillus casei CBT-LC5 (accession number: KCTC 12398BP), Lactobacillus plantarum CBT-LP3 (accession number: KCTC 10782BP), Lactobacillus rhamnosus CBT-LR5 (accession number: KCTC 12202BP), Bifidobacterium longum CBT-BG7 (accession number: KCTC 12200BP), Bifidobacterium lactis CBT-BL3 (accession number: KCTC 11904BP), Bifidobacterium bifidum CBT-BF3 (accession number: KCTC 12199BP), Streptococcus thermophilus CBT-ST3 (accession number: KCTC 11870BP), and Pediococcus pentosaceus CBT-SL4 (accession number: KCTC 10297BP). Starter cultures were prepared using BL broth.
(§2) 0.1 to 1 part by weight of each of the starter cultures was inoculated into 100 parts by weight of each prepared medium, and then cultured for 20 hours while the pH was maintained at about 5.0 to 6.5. […] Thus, glucose or fructooligosaccharide was selected as a carbon source for a subsequent experiment (Table 2). […]
(§3) 0.1 to 1 part by weight of each starter culture was inoculated into 100 parts by weight of each of the prepared media, and then cultured for 20 hours while the pH was maintained at about 5.0 to 6.5. […]

[2] = tested on: Pediococcus pentosaceus CBT-SL4 (KCTC 10297BP)
Experimental: as §1, §2, §3

[3] = tested on: Bifidobacterium longum CBT-BG7 (KCTC 12200BP)
Experimental: as §1, §2, §3

[4] = tested on: Lactobacillus rhamnosus CBT-LR5 (KCTC 12202BP)
Experimental: as §1, §2, §3

[5] = tested on: Bifidobacterium bifidum CBT-BF3 (KCTC 12199BP)
Experimental: as §1, §2, §3

[6] = tested on: Streptococcus thermophilus CBT-ST3 (KCTC 11870BP)
Experimental: as §1, §2, §3

[7] = tested on: Lactobacillus casei CBT-LC5 (KCTC 12398BP)
Experimental: as §1, §2, §3

[8] = tested on: Bifidobacterium lactis CBT-BL3 (KCTC 11904BP)
Experimental: as §1, §2, §3

Compound | viable cell count [1] | viable cell count [2] | viable cell count [3] | viable cell count [4] | viable cell count [5] | viable cell count [6] | viable cell count [7] | viable cell count [8]
O=C(CO)[C@@H](O)[C@H](O)[C@H](O)CO [Fructose] | 452 ×10^7 cfu/ml | 550 ×10^7 cfu/ml | 405 ×10^7 cfu/ml | 486 ×10^7 cfu/ml | 434 ×10^7 cfu/ml | 402 ×10^7 cfu/ml | 408 ×10^7 cfu/ml | 522 ×10^7 cfu/ml
OC[C@H]1O[C@@H](O[C@H]2[C@H](O)[C@@H](O)C(O)O[C@@H]2CO)[C@H](O)[C@@H](O)[C@H]1O (stereo partly drawn) [Lactose] | 550 ×10^7 cfu/ml | 520 ×10^7 cfu/ml | 456 ×10^7 cfu/ml | 405 ×10^7 cfu/ml | 460 ×10^7 cfu/ml | 450 ×10^7 cfu/ml | 405 ×10^7 cfu/ml | 420 ×10^7 cfu/ml
OC[C@H]1O[C@@](CO)(O[C@H]2O[C@H](CO)[C@@H](O)[C@H](O)[C@H]2O)[C@@H](O)[C@@H]1O [Refined sugar] | 427 ×10^7 cfu/ml | 580 ×10^7 cfu/ml | 464 ×10^7 cfu/ml | 425 ×10^7 cfu/ml | 325 ×10^7 cfu/ml | 504 ×10^7 cfu/ml | 482 ×10^7 cfu/ml | 472 ×10^7 cfu/ml

— patent US20230392111A1, “COMPOSITION FOR PROMOTING THE GROWTH OF LACTIC ACID BACTERIA COMPRISING GROWTH FACTORS” (priority 2020, published 2023)
